# Legend:
# [1] = Dissolution testing of tablet formulations A and B (USP apparatus II with paddles, 50 rpm, 900 ml 0.1N HCl); format: physicochemical; details: USP apparatus II paddles 50 rpm, typical range for both formulations
# Procedure: Tablet formulations A and B prepared as above are subjected to dissolution testing for both levodopa and carbidopa (USP apparatus II with paddles, 50 rpm, dissolution medium 900 ml 0.1N HCl) over a 12 hour period.
# [2] = approximately; background statement; cited from earlier work
% Dissolved ([1]; time 1 h),% Dissolved ([1]; time 2 h),% Dissolved ([1]; time 4 h),% Dissolved ([1]; time 8 h),% Dissolved ([1]; time 12 h),SMILES,half-life [2]
15-25%,25-40%,40-70%,65-80%,80-95%,C[C@@](Cc1ccc(O)c(O)c1)(NN)C(=O)O [carbidopa],
15-25%,25-40%,40-70%,65-80%,80-95%,"N[C@@H](Cc1ccc(O)c(O)c1)C(=O)O [levodopa, 3,4-dihydroxy-L-phenylalanine]",45 to 90 min
